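Assay format: 96-well plates, 48-hour exposure. GI50 = concentration required for 50% inhibition of growth. TGI: concentration producing complete growth inhibition.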
Key:
Assay in all cases: growth of human tumour cells (NCI), 48 h
786-0 renal = test system: 786-0 renal
T-47D breast = test system: T-47D breast
MDA-MB-435 = test system: MDA-MB-435
NCI-H522 lung = test system: NCI-H522 lung
SNB-75 CNS = test system: SNB-75 CNS
PC-3 prostate = test system: PC-3 prostate
HT29 colon = test system: HT29 colon
UACC-62 melanoma = test system: UACC-62 melanoma

Row | SMILES | GI50 (786-0 renal) [µM] | TGI (786-0 renal) [µM] | GI50 (T-47D breast) [µM] | TGI (T-47D breast) [µM] | GI50 (MDA-MB-435) [µM] | TGI (MDA-MB-435) [µM] | GI50 (NCI-H522 lung) [µM] | TGI (NCI-H522 lung) [µM] | GI50 (SNB-75 CNS) [µM] | TGI (SNB-75 CNS) [µM] | GI50 (PC-3 prostate) [µM] | TGI (PC-3 prostate) [µM] | GI50 (HT29 colon) [µM] | TGI (HT29 colon) [µM] | GI50 (UACC-62 melanoma) [µM] | TGI (UACC-62 melanoma) [µM]
1 | O=C1C(=O)c2c(nc3ccc(C(F)(F)F)cn23)-c2ccccc21 | 0.396 | 0.835 | 0.214 | 0.57 | 0.179 | 0.324 | 0.206 | 0.549 | 0.202 | 0.465 | 0.21 | 0.761 | 0.923 | 3.61 | 0.179 | 0.343
2 | Nc1cc2c3c(cccc3c1)C(=O)N(CCN1CCCC1)C2=O | 4.5 | > 55.7 | 1.93 | 9.36 | 4.06 | 14.8 | 3.46 | 19.4 | 3.4 | 17 | 3.89 | > 66.6 | 3.11 | 22.2 | 2.47 | 9.99
3 | CCCCNC(c1ccc(Cl)cc1)C(O)c1ccc(Cl)cc1 (stereo unspecified) | 1.59 | 3.95 | 1.67 | 4.52 | 1.61 | 3.57 | 1.56 | 3.51 | 1.93 | 11.4 | 1.92 | 7.47 | 0.792 | 2.74 | 1.49 | 3.18
4 | COC1=CC(c2ccc[nH]2)=N/C1=C\c1[nH]c(C)c(C(=O)CCCCCCCCC(=O)O[C@H]2CC[C@H]3C4CCc5cc(O)ccc5C4CC[C@]23C)c1C (stereo partly specified) | 0.787 | > 12.8 |  |  | 0.272 | > 24.2 | 0.277 | > 33.9 | 0.29 | 2.79 | 0.327 | > 50 | 0.21 | > 50 | 0.182 | 1.09
5 | CC1(C)CC(C)(C)c2cc(NC(=S)Nc3ccc([N+](=O)[O-])cc3)ccc2S1 | 17 | > 55.5 | 17.1 | > 52.6 | 11.8 | 30.5 | 9.63 | 22.1 | 16.7 | 48.7 | 9.69 | 22.4 | 24.1 | > 100 | 10.9 | 25
6 | NCCO/C=C/C(N)C(=O)O (stereo unspecified) |  | > 100 |  | > 100 |  | > 100 |  | > 100 |  | > 100 |  | > 100 |  | > 100 |  | > 100
7 | CCOC(=O)Nc1ccc2nc(-c3cscn3)[nH]c2c1 | 9.16 | > 100 | 5.32 | > 100 | 0.398 | 1.93 | 2.43 | 21 | 2.84 | 29.4 | 10.4 | > 100 | 2.6 | 97.5 | 4.08 | > 100
8 | COc1cc(N2C(=O)[C@H](Cl)C2c2ccc(SC)cc2)cc(OC)c1OC (stereo partly specified) | 0.0456 | 1.83 | 41.3 | > 100 |  |  | 0.0299 | 0.263 | 0.0236 | > 100 | 0.0952 | > 100 | 0.0438 | > 100 | 0.0712 | 91.5
9 | N=C1CCCC1C(=S)SCCC(N)=O (stereo unspecified) |  | > 100 |  | > 100 |  | > 100 |  | > 100 |  | > 100 |  | > 100 |  | > 100 |  | > 100
10 | CC1CCC2C(C)C(=O)OC2C2(C)C(=O)C=CC12 (stereo unspecified) |  | > 10 |  | > 10 |  | > 10 |  | > 10 |  | > 10 |  | > 10 |  | > 10 |  | > 10
11 | CC(C)(C)C[C@H]1N[C@@H](C(=O)NC2CCC(O)CC2)[C@H](c2cccc(Cl)c2F)[C@@]12C(=O)Nc1cc(Cl)ccc12 (stereo partly specified) | 4.22 | 15.4 | 5.98 | 22.8 | 4.8 | 16.6 | 7.89 | 22.9 | 3.78 | 17.9 | 3.65 | 13.5 | 4.34 | 19.9 | 0.235 | 2.46
12 | C=C1C(=O)O[C@@H]2/C=C(/C)[C@@H](OC(C)=O)C/C=C(\C)C(O)[C@@H](OC(=O)/C(C)=C\C)C12 (stereo partly specified) |  | 29.7 |  | 39.7 |  | 57.5 |  | 32.3 |  | > 100 |  | > 100 |  | 40.1 |  | 88.4
13 | COc1cc2c(cc1C)NC(=O)/C2=C/c1ccnc2ccccc12 | 35.3 | > 50 | 28.7 | > 50 | 11.4 | > 50 | 8.35 | 41.7 |  |  | 7.07 | > 50 |  |  | 13.1 | > 50
14 | COc1cc2c(/C=C3\C(=O)Nc4ccccc43)c[nH]c2cc1C | < 0.0218 | 12.6 |  |  | 0.0566 | 0.403 | 0.833 | > 35.3 |  |  | 0.213 | 13.2 | 0.152 | > 100 | 0.0775 | 7.43
15 | COC(=O)C(C(=O)C(=O)Nc1c(C)cccc1C(C)(C)C)c1nc2ccc(Cl)cc2[nH]c1=O (stereo unspecified) |  | > 100 |  | > 100 |  | > 100 |  | > 100 |  | > 100 |  | > 100 |  | > 100 |  | > 100
16 | O=C1/C(=C/c2ccccc2)Oc2cc(O)ccc21 |  | > 100 |  | > 100 |  | > 100 |  | > 100 |  | > 100 |  | > 100 |  | > 100 |  | > 100
17 | O=c1[nH]c(C2CCCN2)nc2c1oc1ccc(Cl)cc12 (stereo unspecified) | > 100 | > 100 | 30.5 | > 100 | > 100 | > 100 | 26.9 | > 100 | 17.9 | > 100 | > 100 | > 100 | > 100 | > 100 | 98.8 | > 100
18 | COc1cc2c(cc1OCCNC(=O)/C=C1\C[C@H]3C=Nc4cc(OCc5ccccc5)c(OC)cc4C(=O)N3C1)N=C[C@@H]1CCCN1C2=O | 3.68 | 16.8 | 2.77 | 55.9 | 2.97 | 9.79 | 1.62 | 3.88 |  |  | 3.53 | 33.7 | 20.3 | > 100 | 2.65 | 9.92

Reference: PubChem BioAssay (NCI)
